Laboratory results as given in patent publication US9987294B2, “Mitochondria-targeted anti-tumor agents” (University of Massachusetts, priority 2007, dated 2018).
“Also recorded” adds a separate entry of the source. Where a SMILES comes first, the peptide text is derived from it. [ ]: non-standard residue; d: D form.

Legend:
[1] = tested on: mitochondria isolated from a p53−/− mouse lymphoma specimen; assay: Cytochrome c release from isolated mitochondria (Western blotting); assay type: biochemical
Description: (§1) Tumor cell types were treated with controls or the various Hsp90 antagonists, and cytosolic extracts were harvested at increasing time intervals between 5-30 minutes and analyzed by Western blotting. For experiments in a cell-free system, purified mitochondria (20 μg) were suspended in 500 μl of SB buffer (0.2 M sucrose, 10 mM Tris-MOPS, pH 7.4, 5 mM succinate, 1 mM sodium phosphate, 10 μM EGTA-Tris, and 2 μM rotenone). Samples were treated with controls or the various Hsp90 antagonists for 20 minutes at 22° C. At the end of each incubation reaction, mitochondria and supernatants were separated by centrifugation at 6,000×g for 10 minutes, and analyzed by Western blotting.

[2] = tested on: primary human sarcoma sample mitochondria; assay: as above; assay type: biochemical
Description: as §1

HeLa cells [3] = assay: Cell viability by MTT, HeLa cells; details: 50 μM; cultures not treated with CsA
[4] = tested on: mitochondria isolated from WS-1 normal human fibroblasts; assay: Mitochondrial membrane potential of TMRM-loaded isolated mitochondria; assay type: biochemical
Description: (§2) Raji cells were treated with Shepherdin or control scrambled peptidomimetic (100 μM) or 17-AAG (5 μM), loaded with the mitochondrial membrane potential-sensitive fluorescent dye JC-1, and analyzed for changes in green/red fluorescence ratio by flow cytometry. For experiments in a cell-free system, purified mitochondria isolated from primary normal cells, various tumor cells types, or normal mouse organs were suspended in SB buffer. […] For these experiments, TMRM-loaded mitochondria in SB buffer were allowed to reach stable fluorescence, which was set as fully polarized state (maximum membrane potential). The fluorescence intensity after treatment with 2 mM CaCl2 was set as minimum membrane potential (fully depolarized state). Changes in fluorescence intensity after each treatment were plotted as a ratio between maximum and minimum membrane potential.
Alternatively, H460 cells were labeled with the fluorescent dye JC-1 (Molecular Probes), and analyzed for changes in red/green (F1-2/F1-1) fluorescence ratio after treatment with the various agents, by multiparametric flow cytometry. Cytochrome c content in pellets or supernatants of drug-treated isolated mitochondria was determined by Western blotting.

tumor cells = assay: Cell viability by MTT, tumor cell types; assay type: cell-based; details: 1 hour exposure; MTT
[5] = tested on: normal mouse liver mitochondria; assay: Cytochrome c and Smac content of isolated mitochondria (Western blotting); assay type: biochemical
Description: as §1

[6] = tested on: mitochondria purified from B-lymphoblastoid Raji cells; assay: Mitochondrial membrane potential of TMRM-loaded isolated mitochondria; assay type: biochemical, human
Description: as §2

[7] = tested on: purified HeLa cell mitochondria; assay: as above; assay type: biochemical, human; details: TMRM-loaded HeLa cell (tumor) mitochondria
Description: as §2

[8] = tested on: normal human fibroblast cell types (WS-1, HGF, HFF); assay: Cell viability by MTT, normal human fibroblast cell types
Description: Changes in protein expression in the various experiments of siRNA targeting were assessed by Western blotting. For analysis of TRAP-1-directed cytoprotection, primary nontransformed human fibroblasts HFF and WS-1 were transfected with control pcDNA3 or TRAP-1 cDNA by lipofectamine for 24 hours, exposed to increasing concentrations (0-1 μM) of the cell death stimulus staurosporine (STS), and analyzed for cell viability after additional 24 hours incubation by MTT. For analysis of apoptosis, p53+/+ or p53−/−HCT116 cells were treated with control or ANT-GA (100 μM), and analyzed for DEVDase activity (CaspaTag) and propidium iodide staining by simultaneous multiparametric flow cytometry, as described (Dohi et al., J. Clin. Invest. 114(8):1117-27, (2004); Plescia et al., Cancer Cell, 7:457-468, (2005)).

[9] = tested on: mitochondria isolated from Raji lymphoblastoid cells; assay: Cytochrome c release from isolated mitochondria (Western blotting); assay type: biochemical, human
Description: as §1

[10] = tested on: mitochondria isolated from normal NIH3T3 cells; assay: Mitochondrial membrane potential of TMRM-loaded isolated mitochondria; assay type: biochemical
Description: as §2, with “potential. In some experiments, increasing concentrations (10-100 μg) of TMRM-loaded mitochondria isolated from HeLa or MCF-7 cells were diluted in 3 ml of SB buffer, normalized to a total protein concentration of 500 μg with BSA, and analyzed for changes in membrane potential in response to control or the various Hsp90 antagonists.” for “potential.”

HeLa cells [11] = assay: Cytochrome c release into the cytosol of treated tumor cells (Western blotting); assay type: cell-based, human
Raji cells = assay: Mitochondrial membrane potential in JC-1-loaded cells (flow cytometry); assay type: cell-based, human; details: within five minutes of addition
Description: as §2

[12] = tested on: normal mouse brain mitochondria; assay: Mitochondrial membrane potential of TMRM-loaded isolated mitochondria; assay type: biochemical
Description: as §2

[13] = tested on: Ras-transformed NIH3T3 mitochondria; assay: as above; assay type: biochemical
Description: as §2

[14] = tested on: normal mouse liver mitochondria; assay: as above; assay type: biochemical
Description: as §2

HeLa cells [15] = assay: Time-lapse videomicroscopy of cell morphology; assay type: cell-based, human; details: within minutes
Description: For time lapse videomicroscopy, HeLa cells were maintained in 35 mm glass-bottom tissue-culture dishes (Mat-tek). Prior to imaging, cells were incubated with 400 nM CM-H2XRos (M7513, Molecular Probes) under growth conditions for 15 minutes. After washes, fresh culture medium was added, and cells were imaged in an environmental chamber (PDMI-2; Harvard Apparatus) in complete medium with CO2 exchange (0.5 liters/minute) at 37° C. Cells were imaged every 1 minute using a 100× phase contrast lens with a green interference filter on an inverted microscope (Olympus IX-70). Images were captured on a CoolSnap HQ CCD camera (Roper Scientific) and concatenated using Metamorph software (Universal Imaging Corp.). Cells were imaged in the absence of any reagent for the first 10 minutes of the time lapse, at which point Shepherdin or cell permeable scrambled peptidomimetic was added dropwise in between acquisitions. Phase-contrast images of mitochondria were verified by the presence of CM-H2XRos labeling.

## CSCC[C@@H](NC(=O)[C@@H](CCCCN)NC(=O)[C@@H](Cc1c[nH]c2ccccc12)NC(=O)[C@@H](CCCCN)NC(=O)[C@H](N)CCCCN)C(=O)N[C@H](CCCNC(=N)N)C(=O)N[C@H](CCCNC(=N)N)C(=O)N[C@H](CC(N)=O)C(=O)N[C@H](CCC(N)=O)C(=O)N[C@H](Cc1ccccc1)C(=O)N[C@H](Cc1c[nH]c2ccccc12)C(=O)N[C@@H](C(=O)N[C@H](CCCCN)C(=O)N[C@@H](C(=O)N[C@H](CCC(N)=O)C(=O)N[C@H](CCCNC(=N)N)C(=O)N[C@H](CC(C)C)C(=O)N[C@H](Cc1ccccc1)C(=O)N[C@H](C)C(=O)N[C@H](CS)C(=O)NCC(=O)N[C@H](CO)C(=O)N[C@H](CO)C(=O)N[C@H](Cc1c[nH]cn1)C(=O)N[C@H](CCCCN)C(N)=O)C(C)C)C(C)C [Sheph-ANT] (H-[dK][dK][dW][dK][dM][dR][dR][dN][dQ][dF][dW][dV][dK][dV][dQ][dR][dL][dF][dA][dC]G[dS][dS][dH][dK]-NH2; N-terminus and C-terminus assumed)
[1]
  cytochrome c release from mitochondria: induced cytochrome c release
[2]
  release of cytochrome c from mitochondria: concentration-dependent release of cytochrome c; also recorded: increases Cyt c release into the supernatant in a dose-dependent manner
HeLa cells [3]
  cell killing: complete cell killing
[4]; WS-1 normal human fibroblasts
  membrane potential of mitochondria: did not cause loss of membrane potential
[4]; glucose-deprived WS-1, compared with Scram-ANT
  membrane potential of mitochondria: did not significantly affect membrane potential
[4]; summary for normal cells (FIGS. 4A, C, E, G)
  mitochondrial membrane potential of normal cells: did not affect mitochondrial membrane potential of normal cells over background levels
Tumor cells
  tumor cell viability / killing: sufficient to kill disparate tumor cell types in a concentration-dependent manner; also recorded: triggered selective tumor cell death
[5]
  cytochrome c or Smac levels of mitochondria: had no effect on cytochrome c or Smac levels
[6]
  membrane potential of mitochondria: readily depolarized mitochondria
[7]
  mitochondrial membrane potential: caused sudden loss of mitochondrial membrane potential; also recorded: induces a change in mitochondrial membrane potential
[8]
  viability of normal human fibroblast cell types: did not affect the viability of various normal human fibroblast cell types
[9]
  release of cytochrome c from mitochondria: concentration-dependent release of cytochrome c; also recorded: reduces mitochondrial Cyt c in a dose-dependent manner
[10]
  membrane potential of mitochondria: had no effect on mitochondria isolated from normal NIH3T3 cells
HeLa cells [11]
  cytochrome c release into the cytosol: discharge of mitochondrial cytochrome c in the cytosol
Raji cells
  mitochondrial membrane potential in tumor cells: induced loss of mitochondrial membrane potential in tumor cells
[12]
  membrane potential of mitochondria: did not affect membrane potential
[13]
  membrane potential of mitochondria: readily depolarized Ras-transformed NIH3T3 mitochondria
[14]
  membrane potential of mitochondria: did not affect membrane potential; also recorded: had no effect on normal liver mitochondria, with or without CsA
HeLa cells [15]
  morphological features of apoptosis: exhibited within minutes morphological features of apoptosis
